Legend:
Type in all cases: in vivo
rat = assay: Single oral administration toxicity to rat
Experimental: The toxicity of the compounds of the present invention is very low and therefore, the compounds may be considered safe for pharmaceutical use. For example, a minimum of lethal dose of the compound (2) by single oral administration to rat was 2000 mg/kg.

[1] = system: TNBS-induced colitis in male SD (CD) IGS rats; assay: TNBS-induced colitis model; details: rat, 1, 3 and 10 mg/kg/day, three days after TNBS induction
Experimental: Male SD (CD) IGS rats (7 weeks old) were anesthetized with sodium pentobarbital. A flexible sonde for oral administration was inserted to 8 cm from the anus. Colitis was induced by intracolonic instillation of 50 mg of 2,4,6-trinitrobenzenesulfonic acid (TNBS) dissolved in 0.25 mL of 20% ethanol, and the anus was plugged and leaved for 2 hours. Test compound was administered at 30 minutes before and 8 hours after the TNBS induction, since the next day of TNBS induction they were administered half of a dairy dose at each time, twice daily in the morning and the evening. Three days later the animals were sacrificed with bleeding under ether anesthetization. All colons were removed, the contents was washed out with saline solution, and then measured the length. After the trimming of the colons, 9 cm segment from the anus was obtained, the water was removed on the paper, and the wet weight was measured with electric scale.
N-hydroxy-5-ethoxymethyloxy-2 (S)-methyl-4(S)— (4-phenoxylbenzoil)aminopentanamide (compound (2)) was used as a test compound. FIG. 3 and FIG. 4 show the effects of compound (2) at the doses of 1, 3 and 10 mg/kg/day on the length and the wet weight of colons respectively.

[2] = system: acetic acid-induced colitis in male SD (CD) IGS rats; assay: Acetic acid-induced colitis model; details: rat, 0.3 or 3 mg/kg/day, 24 hours after colitis induction
Experimental: Male SD (CD) IGS rats (7 weeks old) were anesthetized with sodium pentobarbital. Colitis was induced by intracolonic instillation of 0.25 mL of 5% acetic acid with a disposable sonde for oral administration for mouse, which is attached to 1 mL syringe (Terumo). The sonde was inserted to 5 cm from anus and acetic acid was infused for 10 seconds. After the removal of the sonde, the anus was plugged for 1 minute. Then the colon was washed with approximate 10 mL of physiological saline with a disposable sonde for oral administration for rat, which was attached to 50 mL syringe (Terumo), and the sonde was inserted to 8 cm from anus.
The test compound or vehicle was administered to animals before 30 minutes and after 8 hours of the colitis induction, at each time half of a dairy dose was administered.
After 24 hours of colitis induction, all colons which from anus to cecum, were removed, the content was washed away with saline solution. After trimming of the washed colon, the colon was cut at 9 cm from anus, wiped out the solution, and weighed with electronic measure. Then the injured area (mm^2) of dissected colon was measured by image analysis.
N-hydroxy-5-hydroxy-2 (S)-methyl-4(S)—(4-phenoxybenzoyl)aminopentanamide (compound (1)) was used as a test compound. Compound (1) was administered to animals at doses of 0.3 or 3 mg/kg/day. […]

CCOCOC[C@H](C[C@H](C)C(=O)NO)NC(=O)c1ccc(Oc2ccccc2)cc1 [compound (2), N-hydroxy-5-ethoxymethyloxy-2 (S)-methyl-4(S)— (4-phenoxylbenzoil)aminopentanamide]
minimum of lethal dose (rat): 2000 mg/kg | shrinkage of colon (length of all colons) ([1]; FIG. 3): suppressed the shrinkage of colon | increase in intestine edema (wet weight of colon) ([1]; FIG. 4): suppressed the shrinkage of colon and the increase in intestine edema

C[C@@H](C[C@@H](CO)NC(=O)c1ccc(Oc2ccccc2)cc1)C(=O)NO [compound (1), N-hydroxy-5-hydroxy-2 (S)-methyl-4(S)—(4-phenoxybenzoyl)aminopentanamide]
injured area ([2]; FIG. 1): suppressive tendency to the injured area | increase in intestine edema (wet weight of colon) ([2]; FIG. 2): suppressed the increase in intestine edema

— patent publication US20050165112A1, “Therapeutic agent for inflammatory intestinal diseases containing hydroxamic acid compound as active ingredient” (priority 2002, published 2005)
